# Results from US20160355530A1, “HEPATITIS C INHIBITORS AND USES THEREOF” (AbbVie Inc., priority 2010, published 2016).
# Read-outs that look alike come from different tables or passages of the source.
# What was measured:
# [1] = target: T1, HCV NS5B polymerase 1b BK strain (Hepatitis C virus genotype 1b, UniProt P26663); assay: HCV NS5B polymerase enzymatic inhibition assay, strain 1b BK; type: biochemical; settings: enzyme, strain 1b BK; read-out: HCV Polymerase Strain 1b BK IC50
# T1 construct: six-histidine tag; made in house; host or cells: E. coli
# T1 sequence (P26663 2420-2989): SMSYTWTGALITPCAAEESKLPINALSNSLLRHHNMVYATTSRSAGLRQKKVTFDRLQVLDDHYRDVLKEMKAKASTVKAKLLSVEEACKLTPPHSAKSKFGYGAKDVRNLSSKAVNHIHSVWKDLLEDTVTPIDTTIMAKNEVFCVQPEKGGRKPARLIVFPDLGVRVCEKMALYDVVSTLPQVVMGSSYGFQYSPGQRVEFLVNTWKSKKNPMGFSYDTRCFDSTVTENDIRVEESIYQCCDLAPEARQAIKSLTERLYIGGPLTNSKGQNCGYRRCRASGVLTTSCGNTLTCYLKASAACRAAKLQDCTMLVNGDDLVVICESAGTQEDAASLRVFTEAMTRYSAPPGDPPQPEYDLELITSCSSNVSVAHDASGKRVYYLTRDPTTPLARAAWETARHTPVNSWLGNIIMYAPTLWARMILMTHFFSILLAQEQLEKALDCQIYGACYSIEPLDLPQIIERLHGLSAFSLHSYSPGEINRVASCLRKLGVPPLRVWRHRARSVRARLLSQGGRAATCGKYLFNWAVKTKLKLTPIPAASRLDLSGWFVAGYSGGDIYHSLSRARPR
# Method in brief: (§1)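 Incorporation of [3H]UTP (0.284 μM), alongside 20 μM each CTP and ATP, into RNA copied from a 5 nM 2.1 kb genotype 1b negative-strand template was measured after 3 h at 30° C using purified His-tagged NS5B truncated at residue 570. Product was spermine-precipitated, filtered and scintillation-counted; nonlinear regression gave IC50.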
# [2] = tested on: chimeric replicon with 2a-J6CF-derived NS5B; assay: microbe, parasite or virus in culture; type: cell-based, HCV genotype 2a; settings: Hepatitis C virus, read-out: 2a chimera 5% FBS EC50
# [3] = tested on: chimeric replicon with genotype 2b NS5B; assay: microbe, parasite or virus in culture; type: cell-based, HCV genotype 2b; settings: Hepatitis C virus, read-out: 2b chimera 5% FBS EC50
# [4] = tested on: HCV 1b-BB7 subgenomic replicon; assay: microbe, parasite or virus in culture; type: cell-based, HCV genotype 1b; settings: Hepatitis C virus, stable replicon
# [5] = target: T2, HCV NS5B polymerase 1a-H77 (Hepatitis C virus genotype 1a, UniProt P27958); assay: biochemical; set-up: species or system HCV genotype 1a; settings: enzyme, strain 1a H77; read-out: HCV Polymerase Strain 1a H77 IC50
# T2 construct: six-histidine tag; made in house; host or cells: E. coli
# T2 sequence (P27958 2421-2990): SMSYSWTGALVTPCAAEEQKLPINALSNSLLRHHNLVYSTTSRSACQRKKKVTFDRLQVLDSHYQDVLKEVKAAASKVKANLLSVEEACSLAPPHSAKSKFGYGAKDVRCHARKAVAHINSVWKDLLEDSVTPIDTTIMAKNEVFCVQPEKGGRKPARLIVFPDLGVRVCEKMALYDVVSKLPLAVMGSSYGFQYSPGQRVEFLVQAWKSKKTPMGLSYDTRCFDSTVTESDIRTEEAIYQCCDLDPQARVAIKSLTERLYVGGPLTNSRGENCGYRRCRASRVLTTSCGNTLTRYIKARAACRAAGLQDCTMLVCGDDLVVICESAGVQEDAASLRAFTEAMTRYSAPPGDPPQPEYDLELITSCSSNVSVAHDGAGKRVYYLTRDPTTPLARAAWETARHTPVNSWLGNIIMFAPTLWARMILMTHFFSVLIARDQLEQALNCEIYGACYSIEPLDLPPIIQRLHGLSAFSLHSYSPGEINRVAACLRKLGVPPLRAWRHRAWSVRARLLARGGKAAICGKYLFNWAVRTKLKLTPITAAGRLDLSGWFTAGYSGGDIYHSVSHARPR
# Method in brief: as §1
# [6] = tested on: HCV NS5B polymerase 1a-H77-C316Y; assay: biochemical; set-up: species or system HCV genotype 1a; settings: ratio of enzyme IC50s, 1a H77-C316Y / 1a H77
# Method in brief: as §1
# [7] = target: T3, HCV NS5B polymerase 1a-H77-C316Y (Hepatitis C virus genotype 1a, UniProt P27958, C2736Y); assay: biochemical; set-up: species or system HCV genotype 1a
# T3 construct: six-histidine tag; made in house; host or cells: E. coli
# T3 sequence (P27958 2421-2990 C2736Y): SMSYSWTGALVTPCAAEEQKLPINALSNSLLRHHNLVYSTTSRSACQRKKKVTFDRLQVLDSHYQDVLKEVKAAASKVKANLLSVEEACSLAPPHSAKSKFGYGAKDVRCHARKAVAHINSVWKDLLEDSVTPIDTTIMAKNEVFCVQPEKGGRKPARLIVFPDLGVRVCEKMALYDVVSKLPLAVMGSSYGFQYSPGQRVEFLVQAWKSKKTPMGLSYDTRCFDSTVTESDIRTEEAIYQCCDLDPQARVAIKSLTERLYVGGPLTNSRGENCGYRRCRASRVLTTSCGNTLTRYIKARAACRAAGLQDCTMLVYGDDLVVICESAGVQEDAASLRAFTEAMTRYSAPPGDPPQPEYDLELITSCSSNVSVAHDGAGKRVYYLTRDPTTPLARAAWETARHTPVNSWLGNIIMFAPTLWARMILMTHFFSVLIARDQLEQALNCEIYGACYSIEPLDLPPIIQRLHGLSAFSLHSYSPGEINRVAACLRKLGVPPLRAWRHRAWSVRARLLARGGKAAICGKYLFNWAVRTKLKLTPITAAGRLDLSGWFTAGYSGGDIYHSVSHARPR
# Method in brief: as §1
# [8] = tested on: HCV 1a-H77 subgenomic replicon; assay: microbe, parasite or virus in culture; type: cell-based, HCV genotype 1a; settings: Hepatitis C virus, stable replicon
# [9] = tested on: chimeric replicon with genotype 4a NS5B; assay: microbe, parasite or virus in culture; type: cell-based, HCV genotype 4a; settings: Hepatitis C virus, read-out: 4a chimera 5% FBS EC50
# [10] = tested on: chimeric replicon with genotype 3a NS5B; assay: microbe, parasite or virus in culture; type: cell-based, HCV genotype 3a; settings: Hepatitis C virus, read-out: 3a chimera 5% FBS EC50
# [11] = tested on: HCV 1a-H77-C316Y transient subgenomic replicon in Huh-7 derived cell line; assay: microbe, parasite or virus in culture; type: cell-based, HCV genotype 1a; settings: for EC50: Hepatitis C virus, Huh-7, read-out: Transient Replicon 1a H77-C316Y 5% FBS EC50; for Transient Replicon Fold Resistance C316Y/1a: ratio of transient replicon EC50s, C316Y / 1a H77
# Protocol: (§2) In addition to the stable replicon inhibition assays, transient replicon assays were performed. Transient replicons are identical to the 1a-H77 and 1a-H77-C316Y constructs, except they lack the Neo gene, making it impossible to establish stable cell lines. A T7 Megascript RNA synthesis kit (Ambion) was used to transcribe the HCV subgenomic RNA. The HCV RNA was then precipitated with lithium chloride according to manufacturer's instructions. The HCV subgenomic replicon RNA was transfected via electroporation into a Huh-7 derived cell line as described (Middleton T, et al. J. Virological Methods 2007; 145(2): 137-145). Transfected cells were diluted and plated in 96 well plates at 5×10^3 cells per well in DMEM. Four hours post-transfection, the wells from one plate were harvested for luciferase measurement. This plate provides a measure of the amount of translatable input RNA, and therefore transfection efficiency. To the wells of the remaining plates, a 3-fold dilution series of test compounds was added in DMSO (0.5% DMSO final concentration), and plates were incubated at 37° C., 5% CO2 in a humidified incubator for 4 days. After this period, the media was removed and the plates were washed with 100 μL phosphate-buffered saline per well. For the luciferase assay, 30 μL of Passive Lysis buffer (Promega) was added to each well, and then the plates were incubated for 15 minutes with rocking to lyse the cells. Luciferin solution (100 μL, Promega) was added to each well, and luciferase activity was measured with a Victor II luminometer (Perkin-Elmer). The EC50 values were calculated using GraphPad Prism 4 software.
# [12] = tested on: HCV 1a-H77 transient subgenomic replicon in Huh-7 derived cell line; assay: microbe, parasite or virus in culture; type: cell-based, HCV genotype 1a; settings: Hepatitis C virus, Huh-7; transient replicon, 5% FBS; read-out: Transient Replicon 1a H77 5% FBS EC50
# Protocol: as §2
# [13] = strain 1b BB7, 5% FBS + 40% human plasma, read-out: 1b BB7 5% FBS + 40% Human Plasma EC50
# [14] = strain 1b BB7, 5% FBS, no human plasma, read-out: 1b BB7 5% FBS EC50
# [15] = strain 1b BB7, 5% FBS, read-out: 1b BB7 5% FBS EC50
# [16] = 5% FBS, absence of human plasma, read-out: Stable Replicon 1a H77 5% FBS EC50
# [17] = strain 1a H77, 5% FBS + 40% human plasma, read-out: 1a H77 5% FBS + 40% Human Plasma EC50
# [18] = strain 1a H77, 5% FBS, no human plasma, read-out: 1a H77 5% FBS EC50
# [19] = strain 1a H77, 5% FBS, read-out: 1a H77 5% FBS EC50
SMILES,IC50 [1] [µM],EC50 [2] [µM],EC50 [3] [µM],"EC50 [4, 13] [µM]","EC50 [4, 14] [µM]","EC50 [4, 15] [µM]",IC50 [5] [µM],C316Y/1a Fold Resistance [6] [fold],IC50 [7] [µM],"EC50 [8, 16] [µM]","EC50 [8, 17] [µM]","EC50 [8, 18] [µM]","EC50 [8, 19] [µM]",EC50 [9] [µM],EC50 [10] [µM],EC50 [11] [µM],Transient Replicon Fold Resistance C316Y/1a [11] [fold],EC50 [12] [µM]
"CC(C)CCN(c1cc2oc(-c3ccc(F)cc3)c(-c3ncc[nH]3)c2cc1C1CC1)S(C)(=O)=O [Example 4, N-[5-cyclopropyl-2-(4-fluorophenyl)-3-(1H-imidazol-2-yl)-1-benzofuran-6-yl]-N-(3-methylbutyl)methanesulfonamide]",0.011,0.156,0.27,0.297,0.025,0.025,0.0053,11,0.057,0.029,0.512,0.029,0.029,0.169,0.011,0.0694,9,0.0079
"CS(=O)(=O)N(CCCCO)c1cc2oc(-c3ccc(F)cc3)c(-c3ncc[nH]3)c2cc1C1CC1 [Example 5, N-[5-cyclopropyl-2-(4-fluorophenyl)-3-(1H-imidazol-2-yl)-1-benzofuran-6-yl]-N-(4-hydroxybutyl)methanesulfonamide]",0.017,0.0289,0.0279,0.022,0.00369,0.0037,0.0039,14,0.053,0.0032,0.05,0.00319,0.0032,0.0322,0.0047,0.0881,29,0.003
"CS(=O)(=O)CCCCN(c1cc2oc(-c3ccc(F)cc3)c(-c3ncc[nH]3)c2cc1C1CC1)S(C)(=O)=O [Example 6, N-[5-cyclopropyl-2-(4-fluorophenyl)-3-(1H-imidazol-2-yl)-1-benzofuran-6-yl]-N-[4-(methylsulfonyl)butyl]methanesulfonamide]",0.016,0.026,0.0188,0.0362,0.0039,0.0039,0.0052,13,0.069,0.0083,0.0613,0.0083,0.00832,0.0161,0.0033,0.105,33,0.0032
"CS(=O)(=O)N(CCCc1cc(O)no1)c1cc2oc(-c3ccc(F)cc3)c(-c3ncc[nH]3)c2cc1C1CC1 [Example 7, N-[5-cyclopropyl-2-(4-fluorophenyl)-3-(1H-imidazol-2-yl)-1-benzofuran-6-yl]-N-[3-(3-hydroxy-1,2-oxazol-5-yl)propyl]methanesulfonamide]",0.011,0.218,0.178,0.106,0.0057,0.0057,0.003,4,0.012,0.015,0.111,0.015,0.015,0.162,0.0111,0.327,33,0.0099
"CS(=O)(=O)N(CCCCO)c1cc2oc(-c3ccc(F)cc3)c(C3=NOCCN3)c2cc1C1CC1 [Example 8, N-[5-cyclopropyl-3-(5,6-dihydro-4H-1,2,4-oxadiazin-3-yl)-2-(4-fluorophenyl)-1-benzofuran-6-yl]-N-(4-hydroxybutyl)methanesulfonamide]",0.027,0.117,0.101,0.064,0.01,0.01,0.0049,6,0.031,0.0063,0.036,0.0063,0.0063,0.0716,0.0199,0.0314,10,0.0031
"CS(=O)(=O)CCN(c1cc2oc(-c3ccc(F)cc3)c(C3=NOCCN3)c2cc1C1CC1)S(C)(=O)=O [Example 9, N-[5-cyclopropyl-3-(5,6-dihydro-4H-1,2,4-oxadiazin-3-yl)-2-(4-fluorophenyl)-1-benzofuran-6-yl]-N-[2-(methylsulfonyl)ethyl]methanesulfonamide]",0.034,0.293,0.298,0.138,0.015,0.015,0.0039,8,0.03,0.0084,0.067,0.0084,0.0084,0.125,0.0226,0.0575,7,0.0077
"CC1NC(c2c(-c3ccc(F)cc3)oc3cc(N(CCCCO)S(C)(=O)=O)c(C4CC4)cc23)=NO1 (stereo not drawn) [Example 11, N-[5-cyclopropyl-2-(4-fluorophenyl)-3-(5-methyl-4,5-dihydro-1,2,4-oxadiazol-3-yl)-1-benzofuran-6-yl]-N-(4-hydroxybutyl)methanesulfonamide]",0.02,0.085,0.0985,0.199,0.0103,0.0103,0.0059,5,0.03,0.008,0.1,0.008,0.008,0.0244,0.0166,0.0344,11,0.003
"CC1NC(c2c(-c3ccc(F)cc3)oc3cc(N(CCS(C)(=O)=O)S(C)(=O)=O)c(C4CC4)cc23)=NO1 (stereo not drawn) [Example 12, N-[5-cyclopropyl-2-(4-fluorophenyl)-3-(5-methyl-4,5-dihydro-1,2,4-oxadiazol-3-yl)-1-benzofuran-6-yl]-N-[2-(methylsulfonyl)ethyl]methanesulfonamide]",0.017,0.285,0.221,0.082,0.011,0.011,0.0055,8,0.043,0.0426,0.05,0.0426,0.0426,0.0733,0.026,1.22,16,0.078
